PubChem BioAssay AID588387 (NMMLSC, 2011)
Active and inactive are the calls of the source.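 How the source made its calls: active means half-maximal binding-loss concentration at or below 10 µM, response change across doses of 30% or more, acceptable curve fit; inactive means the rest.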

Target: GTPase HRas (Homo sapiens) (UniProt P01112)
Assay: activated H-Ras mutant GTP-binding inhibitors, SAR follow-up, biochemical, multiplex bead flow cytometry, round 1 (AID 588387)
Conditions: GST-H-Ras beads, Bodipy-FL-GTP binding

Sequence of GTPase HRas (Homo sapiens) (P01112 whole entry, looked up): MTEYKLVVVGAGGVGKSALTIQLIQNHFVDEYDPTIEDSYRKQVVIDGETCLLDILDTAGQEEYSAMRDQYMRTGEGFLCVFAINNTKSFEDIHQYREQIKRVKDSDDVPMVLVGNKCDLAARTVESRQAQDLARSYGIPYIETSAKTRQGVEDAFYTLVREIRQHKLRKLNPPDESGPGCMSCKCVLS

EC50 [nM] | SMILES
45 | CC1(C)Cc2c(sc(NC(=S)NC(=O)c3ccccc3Br)c2C(=O)O)CO1
76 | CC1(C)CCc2sc(NC(=S)NC(=O)c3ccccc3)c(C(=O)O)c2C1
145 | COc1ccc(C(=O)NC(=S)Nc2sc3c(c2C(=O)O)CC(C)(C)OC3)cc1
51 | CC1(C)Cc2c(sc(NC(=S)NC(=O)c3ccccc3F)c2C(=O)O)CO1
260 | CC1(C)Cc2c(sc(NC(=S)NC(=O)c3ccc(Br)cc3)c2C(=O)O)CO1
151 | CC1(C)Cc2c(sc(NC(=O)NC(=O)c3ccccc3)c2C(=O)O)CO1
278 | CC1(C)Cc2c(sc(NC(=S)NC(=O)c3cccc(F)c3)c2C(=O)O)CO1
33 | COc1cccc(C(=O)NC(=S)Nc2sc3c(c2C(=O)O)CC(C)(C)OC3)c1
32 | O=C(NC(=S)Nc1sc2c(c1C(=O)O)CCOC2)c1ccccc1
47 | CC1Cc2c(sc(NC(=S)NC(=O)c3ccccc3)c2C(=O)O)CO1 (configuration not stated)
82 | CC1(C)Cc2c(sc(NC(=S)NC(=O)c3ccccc3)c2C(=O)O)CO1

Same assay, conditions: GST-H-Ras beads, Bodipy-FL-GTP binding, at 100 µM (top of the series)

% response (remaining GTP binding) | SMILES
inactive | CN1CCc2c(sc3nc(Nc4ccc(F)cc4)oc(=O)c23)C1
inactive | CC1(C)Cc2c(sc(NC(=O)Cc3ccccc3)c2C(=O)O)CO1
inactive | COC(=O)c1c(NC(=S)NC(=O)c2ccccc2)sc2c1CC(C)(C)OC2
inactive | CN1CCc2c(sc(NC(=O)Nc3ccc(F)cc3)c2C(=O)O)C1
inactive | CCOC(=O)c1c(NC(=S)NC(=O)c2ccccc2)sc2ccccc12
inactive | CCOC(=O)c1c(N)sc2ccccc12
inactive | CCOC(=O)c1c(NC(=O)Nc2ccc(C)cc2)sc2c1CCN(C)C2
inactive | Cc1ccc(Nc2nc3sc4c(c3c(=O)o2)CCN(C)C4)cc1
inactive | CC(C)(C)OC(=O)c1c(NC(=S)NC(=O)c2ccccc2)sc2c1CCOC2
inactive | CCOC(=O)c1c(NC(=S)Nc2ccccc2)sc2c1CC(C)(C)OC2
inactive | CC1(C)Cc2c(sc(NC(=S)NC(=O)c3cccc(Br)c3)c2C(=O)O)CO1
inactive | Cc1ccc(NC(=O)Nc2sc3c(c2C(=O)O)CCN(C)C3)cc1
inactive | CCOC(=O)c1c(NC(=O)Nc2ccc(F)cc2)sc2c1CCN(C)C2
inactive | COC(=O)c1c(N)sc2c1CC(C)(C)OC2
inactive | CC1(C)Cc2c(sc(NC(=S)Nc3ccccc3)c2C(=O)O)CO1
inactive | CCOC(=O)c1c(NC(=O)NC(C)(C)C)sc2c1CCN(C)C2
